Assay: xn = mol fraction of the nth substance listed
Conditions: 101 kPa

O=S(=O)([N-]S(=O)(=O)C(F)(F)F)C(F)(F)F.[Li+] + CC[n+]1ccn(C)c1.O=S(=O)([N-]S(=O)(=O)C(F)(F)F)C(F)(F)F
viscosity [mPa·s]
Conditions | 298.15 K | 313.15 K | 328.15 K | 343.15 K | 358.15 K
x2 = 0.6 | 588 | 225 | 108.2 | 60.8 | 38.3
x2 = 0.7 | 183 | 86.6 | 47.6 | 29.6 | 20.1
x2 = 0.8 | – | 47.5 | 28.5 | 18.8 | –
x2 = 0.9 | 46.6 | 27.4 | 17.8 | 12.42 | 9.08
x2 = 0.95 | 37.4 | 22.7 | 15.1 | 10.69 | 7.96

CC[n+]1ccn(C)c1.O=S(=O)([N-]S(=O)(=O)C(F)(F)F)C(F)(F)F + O=S(=O)([N-]S(=O)(=O)C(F)(F)F)C(F)(F)F.[Li+]
x1 = 1
Conditions | viscosity [mPa·s]
298.15 K | 30.7
328.15 K | 13.1
358.15 K | 7.12
